Measurements as given in US20070274947A1, “Antisense Oligonucleotides Directed to Ribonucleotide Reductase R1 and Uses Thereof in the Treatment of Cancer” (priority 2003, published 2007).
“Also recorded” adds a separate entry of the source.

Tested on: R1 mRNA
Assay: Northern blot of R1 mRNA in A2058 human melanoma cells
Type: cell-based
Settings: 0.2 μM, 4 hr with Lipofectin
Description: A2058 human melanoma cells, grown to subconfluency (70-80%), were treated with 0.2 μM of phosphorothioate antisense ODNs for 4 hr in the presence of cationic lipid (Lipofectin reagent, final concentration, 5 μg/ml, GIBCO BRL) and Opti-MEM (GIBCO BRL). Cells were washed once with PBS and incubated for 16 hr in α-MEM medium (GIBCO BRL) containing 10% FBS. Total RNA was prepared in TRIzol reagent (GIBCO BRL) and northern blot analysis was performed as previously described (Hurta and Wright, J. Cell. Biochem. 57: 543-56, 1995) with some modifications. RNA prepared from cells treated with lipofectin alone (Control), SEQ ID NO:1 and scrambled control analogue (SEQ ID NO:1 Scr) were subjected to electrophoresis through 1% formaldehyde agarose gels followed by transfer to nylon membrane. The blots were hybridized with ^32P-labeled probes that detect R1 mRNA, 28S rRNA, 18S rRNA, thioredoxin mRNA, […], GAPDH mRNA, thioredoxin reductase mRNA, ribosomal protein S9 mRNA, RNase MRP RNA, RNase P RNA and R2 mRNA.

In the case of “5′-CTCTAGCGTCTTAAAGCCGA-3′ (CTCTAGCGTCTTAAAGCCGA; chemistry not given here) [SEQ ID NO:1]”, the “R1 mRNA expression” value is reported as “significant decrease; also recorded: significantly decrease expression of R1mRNA”.
